Values quoted from earlier work as cited in patent US12364655B2, “Semisolid oral dispersions comprising active agents” (The Procter & Gamble Company, priority 2019, dated 2025).
Where two headings read alike, the source gives them in different places.

Details: from supplier Safety Data Sheet, supplier Product Data Sheet (estimated) or Wikipedia

NC(N)=O.OO [Urea Peroxide, Urea Hydrogen Peroxide Adduct]
Solubility in Water (number of parts by weight per 100 parts by weight of water): 80 parts by weight per 100 parts by weight of water | Solubility in Water (number of parts by weight per 100 parts by weight of water) (listed as urea peroxide): 80 parts by weight per 100 parts
